In patent US7902170B2, “Influenza virus binding, sialylated oligosaccharide substance and use thereof” (priority 2000, dated 2011):
“Also recorded” adds a separate entry of the source.

tested on: human influenza A virus X-113 reassortant vaccine strain (hemagglutinin and neuraminidase of A/Texas/36/91, H1N1); type: binding

Row | Substance | Binding of human influenza virus HRP conjugate to glycolipid on TLC plate
1 | NeuAcα3Galβ4(Fucα3)GlcNAcβ- | excluded; also recorded: no binding
2 | NeuAcα3Galβ4GlcNAcβ3Galβ4(Fucα3)GlcNAcβ- [VIM-2] | excluded; also recorded: no binding
3 | sulfatide | probably unspecific interaction
4 | NeuAcα6Galβ4GlcNAcβ3Galβ4GlcNAcβ3Galβ4GlcβCer [7-sugar NeuAc-6-neolacto ganglioside] | did not show binding; also recorded: no binding at all
5 | NeuAcα6Galβ4GlcNAcβ3Galβ4GlcβCer [S-6-PG] | did not show binding; also recorded: no binding at all
6 | NeuAcα3Galβ4GlcβCer [GM3] | did not see binding
